From patent US10022447B2, “Solid pharmaceutical compositions containing pregabalin” (Warner-Lambert Company LLC, priority 2005, dated 2018)

Test: Clinical studies of regional GI absorption of pregabalin
Assay type: in vivo
Settings: humans
From the text: Once daily dosing of pregabalin, however, presents numerous challenges. Conventional extended release (ER) compositions are problematic for QD dosing because pregabalin is not absorbed uniformly in the gastrointestinal (GI) tract. […] Furthermore, pregabalin is a γ-amino acid which under normal storage conditions may undergo intramolecular cyclization to form a lactam, 4-isobutyl-pyrrolidin-2-one. See, e.g., WO 99/10186 and WO 99/59573, both to A. Aomatsu. Although it is known that the non-active components of the pharmaceutical composition may affect lactam formation, it is difficult to predict which excipients may lead to undesirable lactam formation.

SMILES: CC(C)C[C@H](CN)CC(=O)O [pregabalin, (S)-(+)-3-aminomethyl-5-methyl-hexanoic acid]
- mean absorption window: about six hours or less
- regional absorption in the GI tract: poorly absorbed beyond the hepatic flexure
